Measured values from ChEMBL document CHEMBL4266060, “Structure-Property Relationship Studies of Influenza A Virus AM2-S31N Proton Channel Blockers” (ACS Med Chem Lett, 2018).

Legend:
Influenza A virus [1] = assay: microbe, parasite or virus in culture; conditions: MDCK
Influenza A virus [2] = assay: microbe, parasite or virus in culture; conditions: MDCK; remark: listed apart in the source
Influenza A virus [3] = assay: microbe, parasite or virus in culture; conditions: MDCK; remark: listed apart in the source
Influenza A virus [4] = assay: microbe, parasite or virus in culture; conditions: A/North Carolina/29/2009(H1N1), MDCK
Influenza A virus [5] = assay: microbe, parasite or virus in culture; conditions: MDCK; remark: listed apart in the source
Influenza A virus [6] = conditions: mdck

| Compound | EC50 (Influenza A virus [1]) | EC50 (Influenza A virus [2]) | EC50 (Influenza A virus [3]) | EC50 (Influenza A virus [4]) | EC50 (Influenza A virus [5]) | EC50 (Influenza A virus [6]) |
| --- | --- | --- | --- | --- | --- | --- |
| OC12CC3CC(C1)CC(NCc1ccc(Br)s1)(C3)C2 | 0.7 µM | 0.6 µM | 2 µM | 2.8 µM | 1.4 µM |  |
| CCC(CC)O[C@@H]1C=C(C(=O)O)C[C@H](N)[C@H]1NC(C)=O [OSELTAMIVIR CARBOXYLATE] | > 0.2 µM | > 0.2 µM | > 0.2 µM | > 0.2 µM | 0.0025 µM |  |
| OC12CC3CC(C1)CC(NCc1ccc(I)s1)(C3)C2 | 0.4 µM | 0.6 µM | 0.7 µM |  | 0.8 µM | 1.1 µM |
